Measurements as given in paper PMC10424185, “C-2 Thiophenyl Tryptophan Trimers Inhibit Cellular Entry of SARS-CoV-2 through Interaction with the Viral Spike (S) Protein” (Journal of Medicinal Chemistry, 2023).

Assays:
[1] = test system: SARS-CoV-2 virus carrying the D614G S mutation; type: cell-based
[2] = test system: SARS-CoV-2 virus carrying the D614G S mutation; type: cell-based; remark: listed apart in the source

NCCOCCOCCC(=O)NCC(=O)NC(CCC(=O)NC(Cc1c(Sc2ccc([N+](=O)[O-])cc2)[nH]c2ccccc12)C(=O)O)(CCC(=O)NC(Cc1c(Sc2ccc([N+](=O)[O-])cc2)[nH]c2ccccc12)C(=O)O)CCC(=O)NC(Cc1c(Sc2ccc([N+](=O)[O-])cc2)[nH]c2ccccc12)C(=O)O (stereo not shown) [Compound 63]
relative virus production vs mock-treatment, VeroE6-TMPRSS2 cells [1]: 0.059 ± 0.018
relative virus production vs mock-treatment, A549-ACE2 cells [2]: 0.035 ± 0.032

CCC(CC)COC(=O)[C@H](C)N[P@](=O)(OC[C@H]1O[C@@](C#N)(c2ccc3c(N)ncnn23)[C@H](O)[C@@H]1O)Oc1ccccc1 [remdesivir, reference compound]
relative virus production vs mock-treatment, VeroE6-TMPRSS2 cells [1]: 0.002 ± 0.001
relative virus production vs mock-treatment, A549-ACE2 cells [2]: 0.002 ± 0.002
